Measurements published in article PMC12077488 (Science signaling, 2025).

Tests used:
[1] = tested on: endogenous adenosine receptors (A1 purinergic receptors); assay: Gαi bONE-GO kinetic BRET in primary mouse cortical astroglial cells; type: cell-based; settings: lentiviral Gαi bONE-GO, N=3
[2] = tested on: GABABR; settings: HEK293T cells expressing GABABR, GINIP-Nluc and YFP-CAAX
[3] = tested on: DOR; settings: cited from earlier work
[4] = target: Gαi (UniProt P08753); settings: cited from earlier work
Chain of Gαi (P08753 2-354): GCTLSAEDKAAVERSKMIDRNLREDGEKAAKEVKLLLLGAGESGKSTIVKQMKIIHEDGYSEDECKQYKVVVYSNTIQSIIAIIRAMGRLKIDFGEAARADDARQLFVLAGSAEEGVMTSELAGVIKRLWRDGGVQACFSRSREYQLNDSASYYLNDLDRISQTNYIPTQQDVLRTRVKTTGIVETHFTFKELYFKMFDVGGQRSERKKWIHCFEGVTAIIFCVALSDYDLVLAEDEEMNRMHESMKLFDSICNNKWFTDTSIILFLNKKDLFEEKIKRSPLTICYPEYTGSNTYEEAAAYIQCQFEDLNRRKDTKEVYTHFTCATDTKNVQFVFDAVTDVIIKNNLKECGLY

Chain of GINIP (Q9UPV7 2-400): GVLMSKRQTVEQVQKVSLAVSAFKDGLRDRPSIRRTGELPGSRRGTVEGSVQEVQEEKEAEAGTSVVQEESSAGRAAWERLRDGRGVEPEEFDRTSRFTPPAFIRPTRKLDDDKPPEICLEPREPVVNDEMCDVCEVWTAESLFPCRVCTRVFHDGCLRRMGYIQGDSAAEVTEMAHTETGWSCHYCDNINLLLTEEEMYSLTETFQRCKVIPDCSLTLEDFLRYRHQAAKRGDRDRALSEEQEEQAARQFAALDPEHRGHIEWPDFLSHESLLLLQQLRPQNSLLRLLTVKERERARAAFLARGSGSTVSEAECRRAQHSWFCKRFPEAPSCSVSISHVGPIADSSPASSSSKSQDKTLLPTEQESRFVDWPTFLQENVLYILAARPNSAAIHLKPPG

Compound: Nc1ncnc2c1ncn2[C@@H]1O[C@H](CO)[C@@H](O)[C@H]1O [adenosine]
- BRET response (endogenous Gαi activation) to adenosine [1]: robust and concentration-dependent responses

Compound: CGP54626
- reversal of the GABA-induced BRET response by antagonist [2]: rapidly reverted

Compound: Endomorphin-1
- DOR activity according to the source reference of the IUPHAR annotation [3]: inactive
- agonist efficacy annotation for DOR in the IUPHAR database [3]: full agonist

Compound: Endomorphin-2
- agonist efficacy annotation for DOR in the IUPHAR database [3]: lack of annotation

Compound: GINIP (from UniProt Q9UPV7)
- Kd [4]: 65 nM
